# Test results taken from ChEMBL document CHEMBL1150170, “An antiplasmodial lignan from Euterpe precatoria” (J Nat Prod, 2002).
# Tested on: Plasmodium falciparum
# Test: Antiplasmodial activity against chloroquine-sensitive Plasmodium falciparum 3D7 by [3H]phenylalanine uptake
# Type: functional, organism-based
smiles,measurement,value
COc1cc([C@@H]2Oc3c(OC)cc(/C=C/COC(=O)c4ccccc4)cc3[C@H]2COC(=O)c2ccccc2)ccc1O (racemic) [DEHYDRODICONIFERYL ALCOHOL DIBENZOATE],IC50,12 µM
